Patent US10485814B2, “Nicotinamide riboside analogs and pharmaceutical compositions and uses thereof” (GlaxoSmithKline Intellectual Property (No. 2) Limited, priority 2014, dated 2019)

What was measured:
HaCaT cells = assay: H2O2-induced reactive oxygen species (ROS) in HaCaT cells (CellROX deep red); type: cell-based, human; conditions: 3 hr pre-incubation then 250 μM H2O2, Hydroxyterosol 0.005%, niacinamide 4.5 mM, NRH several concentrations
Experimental: HaCaT cells were grown as described in example 23 and were seeded in 96-well plates (Nunc™ black with optical bottom, Thermo Fisher Scientific, Inc., Waltham, Mass.) with a density at 2×10^4 cells per well and 100 μl medium in each well, and grown overnight before treatments. Stock solutions of NRH and other test compounds were prepared and diluted to 2× of final treatment concentrations in DMEM medium in 96-well storage plate as indicated in the FIG. 11. HaCaT Cells were treated in triplicates by adding 100 μl of diluted solutions of test compounds (2×) to each well containing 100 μl medium already. Cells were incubated in the presence of test compounds for 3 hrs. At the end of 3 hr incubation, cells were washed once with 200 μl DPBS with Ca^++ and Mg^++ (Life Technologies) and then fed with 100 μl DMEM medium each well containing H2O2 at 250 μM (as a ROS (reactive oxygen species) inducer, Sigma). After 30 min incubation, cells were washed once with 200 μl DPBS with Ca^++ and Mg^++ and CellROX deep red reagent (2.5 mM stock solution, Life Technologies) was added to the medium to a final concentration of 5 μM. After 1 hr incubation at 37° C., 5% CO2, Cells were washed for 3 times with DPBS, fluorescence signal was read at Ex. 640 nm and Em. 665 nm in Biotek Synergy H4 microplate reader (BioTek, Winooski, Vt.). Untreated cells were served as controls (normalized to 1). All the treated samples were normalized to the untreated control.

[1] = Storage in a 93% RH salt chamber; type: physicochemical; conditions: approximately 22° C., approximately 2¼ hours
Experimental: XRD indicated the sample was amorphous (FIG. 16). A sample of NRH was stored in a 93% RH (relative humidity) salt chamber (at approximately 22° C.) for approximately 2¼ hours. The sample had deliquesced and there was no evidence of crystallization based on XRD analysis.

Human dermal fibroblasts = assay: TNFα-induced gene expression in dermal fibroblasts (QPCR); type: cell-based; conditions: 30 hr
Experimental: Human dermal fibroblasts were grown in regular culture media as described in example 23 above and seeded in 12-well plates at 2×10^5 cells per well for overnight. Cells were then replenished with fresh medium and treated with TNFα (10 ng/ml) with and without NRH (200 μM) for 30 hr. At the end of the incubation, cells were washed once with HBSS with Ca^2+ and Mg^2+ (Life Technologies), and subject to RNA isolation and QPCR analyses.

[2] = Gravimetric Vapor Sorption (GVS); type: physicochemical
Summary of the method: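 Samples dried under nitrogen 5 h at 25 °C, then sorption ramp from 5% to 95% or 90% RH and desorption back to 5% or 10% RH, all at 25 °C. Each RH step held 4 h; mass change by microbalance.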

- behaviour on storage at high humidity [1]: deliquesced
- GVS weight gain ([2]; 90% RH, 25° C., after drying): greater than 60 % w/w
- hygroscopicity by GVS ([2]; GVS isotherm 25° C.): hygroscopic
SMILES: NC(=O)C1=CN([C@@H]2O[C@H](CO)[C@@H](O)[C@H]2O)C=CC1 [NRH, dihydronicotinamide riboside]
- H2O2-induced ROS (HaCaT cells): dose-dependent inhibitory activities
- basal COX-2 gene expression (Human dermal fibroblasts; NRH 200 μM): reduced
- expression level of NRF2 (Human dermal fibroblasts; NRH 200 μM): slightly increased
- TNF-α-induced COX-2 gene expression (Human dermal fibroblasts; TNFα 10 ng/ml with NRH 200 μM): reduced
